How the values were obtained:
[1] = tested on: dystrophin in mouse primary skeletal muscle cultures derived from mdx mice; experiment: dystrophin immunostaining in primary skeletal muscle cultures from mdx mice; format: cell-based; conditions: 20 μM, cells cultured for 10 days
Description: Mouse primary skeletal muscle cultures derived from 1-day old mdx mice were prepared as described previously (Barton-Davis et al., 1999, J Clin Invest. 104(4):375-381). Cells were cultured for 10 days in the presence of 3-[2-(4-Isopropyl-3-methyl-phenoxy)-acetylamino]-benzoic acid, sodium salt (20 μM). Culture medium was replaced every four days and the presence of dystrophin in myoblast cultures was detected by immunostaining as described previously (Barton-Davis et al., 1999, J Clin Invest. 104(4):375-381). A primary monoclonal antibody to the C-terminus of the dystrophin protein (F19A12) was used undiluted and rhodamine conjugated anti-mouse IgG was used as the secondary antibody. The F19A12 antibody will detect the full-length protein produced by suppression of the nonsense codon. Staining was viewed using a Leica DMR micropscope, digital camera, and associated imaging software at the University of Pennsylvania.

[2] = tested on: 28S rRNA; experiment: chemical foot-printing of ribosomes prepared from HeLa cells (DMS, kethoxal); format: binding; conditions: 100 μM, DMS and kethoxal
Description: Ribosomes prepared from HeLa cells were incubated with the small molecules (at a concentration of 100 μM), followed by treatment with chemical modifying agents (dimethyl sulfate [DMS] and kethoxal [KE]). Following chemical modification, rRNA was phenol-chloroform extracted, ethanol precipitated, analyzed in primer extension reactions using end-labeled oligonucleotides hybridizing to different regions of the three rRNAs and resolved on 6% polyacrylamide gels. The probes used for primer extension cover the entire 18S (7 oligonucleotide primers), 28S (24 oligonucleotide primers), and 5S (one primer) rRNAs. Controls in these experiments include DMSO (a control for changes in rRNA accessibility induced by DMSO), paromomycin (a marker for 18S rRNA binding), and anisomycin (a marker for 28S rRNA binding).

[3] = tested on: CFTR in a bronchial epithelial cell line harboring a nonsense codon at amino acid 1282 (W1282X); experiment: CFTR function as cAMP-activated chloride channel, SPQ assay; format: cell-based; conditions: compound, cAMP stimulation
Description: To address the effects of the nonsense-suppressing compounds on mRNAs altered in specific inherited diseases, a bronchial epithelial cell line harboring a nonsense codon at amino acid 1282 (W1282X) was treated with 3-[2-(4-Isopropyl-3-methyl-phenoxy)-acetylamino]-benzoic acid, sodium salt (20RM) and CFTR function was monitored as a cAMP-activated chloride channel using the SPQ assay (Yang et al., 1993, Hum Mol Genet. 2(8):1253-1261 and Howard et al., 1996, Nat Med. 2(4):467-469). […] No increase in fluorescence was observed when cells were not treated with compound or if the cells were not stimulated with cAMP.

With `Cc1cc(OCC(=O)Nc2cccc(C(=O)[O-])c2)ccc1C(C)C.[Na+]` [Compound 46, 3-[2-(4-Isopropyl-3-methyl-phenoxy)-acetylamino]-benzoic acid, Sodium salt] the “full-length dystrophin expression (immunostaining)” value [1] was “EXPRESS FULL-LENGTH […]”, the “accessibility of chemical modifying agents to rRNA nucleotides (foot-printing)” value [2] was “alters the accessibility of the chemical modifying agents to specific nucleotides in the 28S rRNA” and the melting point was 188 to 189 °C. For the same compound, the “CFTR function (SPQ fluorescence, chloride channel activity)” value [3] was “increase chloride channel activity”.
